# Source: patent US20130129732A1, “METHOD FOR […]” (LANXESS Deutschland GmbH, priority 2009, published 2013)
# What was measured:
# Assay type in all cases: cell-based
# Penicillium roqueforti = experiment: Microbial reduction (MLC) in clear apple juice seeded with Penicillium roqueforti, preservative with or without PEF; conditions: 10^5 CFU/ml
# Excerpt: (§1) In the examples hereinafter, the Elcrack® apparatus of the Deutsche Institute für Lebensmitteltechnik e. V. [German Institute for food technology] was used for the PEF treatment.
# (§2) The treatment proceeded at differing field strengths and energy densities, wherein the pulse width was 20 μs and the pulse frequency 400 Hz.
# (§3) In the examples hereinafter, in each case clear apple juice was admixed with stirring by means of a propeller agitator with a microbial or spore suspension, then after approximately 3 minutes, optionally further antimicrobially active substances, and thereafter after approximately 2 minutes, DMDC. The microbial or spore suspension was added in such a manner that a defined amount of cells, generally 10^3 to 10^5 CFU/ml were present in the apple juice.
# (§4) The apple juice was then treated by PEF (using the above-described Elcrack® apparatus). As further microbially active substances, sodium benzoate or potassium sorbate were used.
# (§5) As a measure for microbial reduction, the median logarithmic cell count reduction (MLC) was determined. In this case the logarithm of the surviving cell count is subtracted from the logarithm of the initial cell count. The higher the MLC value, the higher the microbial reduction and the better the activity is.
# (§6) A: Bacillilus subtilis DSM 347 (ATCC 6633) B: Penicillium roqueforti DSM 1079 (ATCC 34908) C: Lactobacillus frigidus DSM 6235 D: Saccharomyces […] DSM 70449 (ATCC 18824)
# Lactobacillus frigidus = experiment: Microbial reduction (MLC) in clear apple juice seeded with Lactobacillus frigidus, preservative with or without PEF; conditions: 10^5 CFU/ml, after 1 week
# Excerpt: as §1, §2, §3, §4, §5, §6
# Saccharomyces cerivisiae = experiment: Microbial reduction (MLC) in clear apple juice seeded with Saccharomyces cerivisiae, preservative with PEF; conditions: 10^5 CFU/ml, PEF 5 kV/cm, 3-6 J/ml, after 24 h
# Excerpt: as §1, §2, §3, §4, §5, §6
# Bacillus subtilis = experiment: Microbial reduction (MLC) in clear apple juice seeded with Bacillus subtilis, preservative with or without PEF; conditions: 10^3 CFU/ml
# Excerpt: as §1, §2, §3, §4, §5, §6
# [1] = PEF 30 kV/cm, 94-104 J/ml, after 24 h
# [2] = PEF 35 kV/cm, 110-116 J/ml, after 24 h
compound,measurement,setting,value
"O=C([O-])c1ccccc1.[Na+] [VB3, sodium benzoate]",MLC (median logarithmic cell count reduction),Penicillium roqueforti; [1],none; heavy
"COC(=O)OC(=O)OC [VB1, dimethyl dicarbonate]",MLC (median logarithmic cell count reduction),"Penicillium roqueforti; no PEF, 21° C., after 24 h",6.4/24 h
"COC(=O)OC(=O)OC [Example C1, dimethyl dicarbonate]",MLC (median logarithmic cell count reduction),"Lactobacillus frigidus; PEF 30 kV/cm, 88-93 J/ml",3.6/1 week
"O=C([O-])c1ccccc1.[Na+] [VD2, sodium benzoate]",MLC (median logarithmic cell count reduction),Saccharomyces cerivisiae,none; heavy
"COC(=O)OC(=O)OC [Example B5, dimethyl dicarbonate]",MLC (median logarithmic cell count reduction),"Penicillium roqueforti; PEF 30 kV/cm, 94-104 J/ml, after 4 weeks",at least 7/4
"COC(=O)OC(=O)OC [Example A1, dimethyl dicarbonate]",MLC (median logarithmic cell count reduction),Bacillus subtilis; [2],2.2/24 h
"COC(=O)OC(=O)OC [Example A5, dimethyl dicarbonate]",MLC (median logarithmic cell count reduction),"Bacillus subtilis; PEF 35 kV/cm, 111 J/ml, after 1 week",3.0/1 week
"COC(=O)OC(=O)OC [Example D1, dimethyl dicarbonate]",MLC (median logarithmic cell count reduction),Saccharomyces cerivisiae,min 7/24 h
"C/C=C/C=C/C(=O)[O-].[K+] [VD3, potassium sorbate]",MLC (median logarithmic cell count reduction),Saccharomyces cerivisiae,none; heavy
"C/C=C/C=C/C(=O)[O-].[K+] [VC3, potassium sorbate]",MLC (median logarithmic cell count reduction),"Lactobacillus frigidus; PEF 30 kV/cm, 88-93 J/ml",3.0/1 week
"COC(=O)OC(=O)OC [VC1, dimethyl dicarbonate]",MLC (median logarithmic cell count reduction),"Lactobacillus frigidus; no PEF, 21° C.",2.3/1 week
"O=C([O-])c1ccccc1.[Na+] [VC2, sodium benzoate]",MLC (median logarithmic cell count reduction),"Lactobacillus frigidus; PEF 30 kV/cm, 88-93 J/ml",2.8/1 week
"COC(=O)OC(=O)OC [Example A4, dimethyl dicarbonate]",MLC (median logarithmic cell count reduction),"Bacillus subtilis; PEF 15 kV/cm, 23 J/ml, after 24 h",1.4/24 h
"O=C([O-])c1ccccc1.[Na+] [VA1, sodium benzoate]",MLC (median logarithmic cell count reduction),Bacillus subtilis; [2],2.0/24 h
"C/C=C/C=C/C(=O)[O-].[K+] [VB4, potassium sorbate]",MLC (median logarithmic cell count reduction),Penicillium roqueforti; [1],none; heavy
"C/C=C/C=C/C(=O)[O-].[K+] [VA2, potassium sorbate]",MLC (median logarithmic cell count reduction),Bacillus subtilis; [2],0.5/24 h
